# From ChEMBL document CHEMBL5625219, “Design, synthesis fusidic acid derivatives alleviate acute lung injury via inhibiting MAPK/NF-κB/NLRP3 pathway” (Eur J Med Chem, 2023)
# Calls of active or inactive are those of the source. No cut-off for these calls is given here.
# Key:
# RAW264.7 [1] = assay: Inhibition of MAPK signaling pathway in LPS-stimulated mouse RAW264.7 cells assessed as decrease in phosphorylation of ERK at 2.5 to 10 uM by Western blot analysis; format: cell-based; details: dose 2.5-10 µM
# RAW264.7 [2] = assay: Inhibition of MAPK signaling pathway in LPS-stimulated mouse RAW264.7 cells assessed as decrease in phosphorylation of JNK at 2.5 to 10 uM by Western blot analysis; format: cell-based; details: dose 2.5-10 µM
# RAW264.7 [3] = assay: Inhibition of NFkappaB signaling pathway in LPS-stimulated mouse RAW264.7 cells assessed as decrease in NFkappaB protein level at 2.5 to 10 uM by Western blot analysis; format: cell-based; details: dose 2.5-10 µM
# RAW264.7 [4] = assay: Inhibition of NFkappaB signaling pathway in LPS-stimulated mouse RAW264.7 cells assessed as decrease in IkappaBalpha protein level at 2.5 to 10 uM by Western blot analysis; format: cell-based; details: dose 2.5-10 µM
# [5] = target: NACHT, LRR and PYD domains-containing protein 3 (Mus musculus) (UniProt Q8R4B8); assay: Inhibition of NLRP3 inflammasome activation in LPS-stimulated mouse RAW264.7 cells assessed as decrease in caspase-1 expression at 2.5 to 10 uM by Western blot analysis; format: cell-based; details: dose 2.5-10 µM
# [6] = target: NACHT, LRR and PYD domains-containing protein 3 (Mus musculus) (UniProt Q8R4B8); assay: Inhibition of NLRP3 inflammasome activation in LPS-stimulated mouse RAW264.7 cells assessed as downregulation of NLRP3 expression by Western blot analysis; format: cell-based; details: dose 2.5-10 µM
# [7] = target: NACHT, LRR and PYD domains-containing protein 3 (Mus musculus) (UniProt Q8R4B8); assay: Inhibition of NLRP3 inflammasome activation in LPS-stimulated mouse RAW264.7 cells assessed as downregulation of IL-1beta expression by Western blot analysis; format: cell-based; details: dose 2.5-10 µM
# RAW264.7 [8] = assay: Anti-inflammatory activity in LPS-stimulated mouse RAW264.7 cells assessed as inhibition of ROS production preincubated with compound for 1 hrs followed by LPS stimulation and measured after 23 hrs by DCFH-DA staining based confocal laser microscopic analysis; format: functional, cell-based; details: dose 2.5-10 µM, time 24.0 hrs
# Mus musculus [9] = assay: Anti-inflammatory activity in LPS-induced BALB/c mouse model of […] assessed as attenuation of inflammatory cell infiltration in lungs at 5 to 20 mg/kg, po preadministered with compound for 3 days followed by LPS stimulation for 6 hrs after 1 hrs compound administration on day 3 by H&E staining based analysis; format: functional, organism-based; details: dose 5-20 mg/kg, time 3.0 day
# Mus musculus [10] = assay: Anti-inflammatory activity in LPS-induced BALB/c mouse model of […] assessed as attenuation of lung alveolar hemorrhage at 5 to 20 mg/kg, po preadministered with compound for 3 days followed by LPS stimulation for 6 hrs after 1 hrs compound administration on day 3 by H&E staining based analysis; format: functional, organism-based; details: dose 5-20 mg/kg, time 3.0 day
# Mus musculus [11] = assay: Anti-inflammatory activity in LPS-induced BALB/c mouse model of […] assessed as inhibition of LPS-induced increase in lung W/D ratio at 5 to 20 mg/kg, po preadministered with compound for 3 days followed by LPS stimulation for 6 hrs after 1 hrs compound administration on day 3; format: functional, organism-based; details: dose 5-20 mg/kg, time 3.0 day
# Mus musculus [12] = assay: Anti-inflammatory activity in LPS-induced BALB/c mouse model of […] assessed as inhibition of LPS-induced increase in IL-6 expression in BALF at 5 to 20 mg/kg, po preadministered with compound for 3 days followed by LPS stimulation for 6 hrs after 1 hrs compound administration on day 3 by ELISA; format: functional, organism-based; details: dose 5-20 mg/kg, time 3.0 day
# Mus musculus [13] = assay: Anti-inflammatory activity in LPS-induced BALB/c mouse model of […] assessed as inhibition of LPS-induced increase in TNF-alpha expression in BALF at 5 to 20 mg/kg, po preadministered with compound for 3 days followed by LPS stimulation for 6 hrs after 1 hrs compound administration on day 3 by ELISA; format: functional, organism-based; details: dose 5-20 mg/kg, time 3.0 day
# Mus musculus [14] = assay: Anti-inflammatory activity in LPS-induced BALB/c mouse model of […] assessed as inhibition of LPS-induced increase in NO production in serum at 5 to 20 mg/kg, po preadministered with compound for 3 days followed by LPS stimulation for 6 hrs after 1 hrs compound administration on day 3 by Griess reagent based method; format: functional, organism-based; details: dose 5-20 mg/kg, time 3.0 day
# Mus musculus [15] = assay: Anti-inflammatory activity in LPS-induced BALB/c mouse model of […] assessed as inhibition of LPS-induced increase in IL-6 expression in serum at 5 to 20 mg/kg, po preadministered with compound for 3 days followed by LPS stimulation for 6 hrs after 1 hrs compound administration on day 3 by ELISA; format: functional, organism-based; details: dose 5-20 mg/kg, time 3.0 day
# Mus musculus [16] = assay: Anti-inflammatory activity in LPS-induced BALB/c mouse model of […] assessed as inhibition of LPS-induced increase in TNF-alpha expression in serum at 5 to 20 mg/kg, po preadministered with compound for 3 days followed by LPS stimulation for 6 hrs after 1 hrs compound administration on day 3 by ELISA; format: functional, organism-based; details: dose 5-20 mg/kg, time 3.0 day
# Mus musculus [17] = assay: Anti-inflammatory activity in LPS-induced BALB/c mouse model of […] assessed as inhibition of iNOS expression preadministered orally with compound for 3 days followed by LPS stimulation for 6 hrs after 1 hrs compound administration on day 3 by Western blot analysis; format: functional, organism-based; details: dose 5-20 mg/kg, route po, time 3.0 day
# Mus musculus [18] = assay: In vivo inhibition of MAPK activation in LPS-induced BALB/c mouse model of […] assessed as inhibition of p38 MAPK phosphorylation preadministered orally with compound for 3 days followed by LPS stimulation for 6 hrs after 1 hrs compound administration on day 3 by Western blot analysis; format: functional; details: dose 5-20 mg/kg, route po, time 3.0 day
# Mus musculus [19] = assay: In vivo inhibition of MAPK activation in LPS-induced BALB/c mouse model of […] assessed as inhibition of ERK phosphorylation preadministered orally with compound for 3 days followed by LPS stimulation for 6 hrs after 1 hrs compound administration on day 3 by Western blot analysis; format: functional; details: dose 5-20 mg/kg, route po, time 3.0 day
# Mus musculus [20] = assay: In vivo inhibition of MAPK activation in LPS-induced BALB/c mouse model of […] assessed as inhibition of JNK phosphorylation preadministered orally with compound for 3 days followed by LPS stimulation for 6 hrs after 1 hrs compound administration on day 3 by Western blot analysis; format: functional; details: dose 5-20 mg/kg, route po, time 3.0 day
# Mus musculus [21] = assay: In vivo inhibition of NFkappaB activation in LPS-induced BALB/c mouse model of […] assessed as inhibition of NFkappaB degradation preadministered orally with compound for 3 days followed by LPS stimulation for 6 hrs after 1 hrs compound administration on day 3 by Western blot analysis; format: functional; details: dose 5-20 mg/kg, route po, time 3.0 day
# Mus musculus [22] = assay: In vivo inhibition of NFkappaB activation in LPS-induced BALB/c mouse model of […] assessed as inhibition of IkappaBalpha degradation preadministered orally with compound for 3 days followed by LPS stimulation for 6 hrs after 1 hrs compound administration on day 3 by Western blot analysis; format: functional; details: dose 5-20 mg/kg, route po, time 3.0 day
# Mus musculus [23] = assay: In vivo inhibition of NLRP3 inflammasome activation in LPS-induced BALB/c mouse model of […] assessed as reduction in NLRP3 expression preadministered orally with compound for 3 days followed by LPS stimulation for 6 hrs after 1 hrs compound administration on day 3 by Western blot analysis; format: functional; details: dose 5-20 mg/kg, route po, time 3.0 day
# Mus musculus [24] = assay: In vivo inhibition of NLRP3 inflammasome activation in LPS-induced BALB/c mouse model of […] assessed as reduction in caspase-1 expression preadministered orally with compound for 3 days followed by LPS stimulation for 6 hrs after 1 hrs compound administration on day 3 by Western blot analysis; format: functional; details: dose 5-20 mg/kg, route po, time 3.0 day
# RAW264.7 [25] = assay: cells; details: Mus musculus
# Description: Anti-inflammatory activity in mouse RAW264.7 cells assessed as inhibition of LPS-induced IL-6 production preincubated with compound for 1 hrs followed by LPS stimulation and measured after 23 hrs by ELISA
# RAW264.7 [26] = assay: cells; details: Mus musculus; remark: listed apart in the source
# Description: Anti-inflammatory activity in mouse RAW264.7 cells assessed as inhibition of LPS-induced TNF-alpha production preincubated with compound for 1 hrs followed by LPS stimulation and measured after 23 hrs by ELISA
# Sequence of NACHT, LRR and PYD domains-containing protein 3 (Mus musculus) (Q8R4B8 whole entry, the tested form may be a part): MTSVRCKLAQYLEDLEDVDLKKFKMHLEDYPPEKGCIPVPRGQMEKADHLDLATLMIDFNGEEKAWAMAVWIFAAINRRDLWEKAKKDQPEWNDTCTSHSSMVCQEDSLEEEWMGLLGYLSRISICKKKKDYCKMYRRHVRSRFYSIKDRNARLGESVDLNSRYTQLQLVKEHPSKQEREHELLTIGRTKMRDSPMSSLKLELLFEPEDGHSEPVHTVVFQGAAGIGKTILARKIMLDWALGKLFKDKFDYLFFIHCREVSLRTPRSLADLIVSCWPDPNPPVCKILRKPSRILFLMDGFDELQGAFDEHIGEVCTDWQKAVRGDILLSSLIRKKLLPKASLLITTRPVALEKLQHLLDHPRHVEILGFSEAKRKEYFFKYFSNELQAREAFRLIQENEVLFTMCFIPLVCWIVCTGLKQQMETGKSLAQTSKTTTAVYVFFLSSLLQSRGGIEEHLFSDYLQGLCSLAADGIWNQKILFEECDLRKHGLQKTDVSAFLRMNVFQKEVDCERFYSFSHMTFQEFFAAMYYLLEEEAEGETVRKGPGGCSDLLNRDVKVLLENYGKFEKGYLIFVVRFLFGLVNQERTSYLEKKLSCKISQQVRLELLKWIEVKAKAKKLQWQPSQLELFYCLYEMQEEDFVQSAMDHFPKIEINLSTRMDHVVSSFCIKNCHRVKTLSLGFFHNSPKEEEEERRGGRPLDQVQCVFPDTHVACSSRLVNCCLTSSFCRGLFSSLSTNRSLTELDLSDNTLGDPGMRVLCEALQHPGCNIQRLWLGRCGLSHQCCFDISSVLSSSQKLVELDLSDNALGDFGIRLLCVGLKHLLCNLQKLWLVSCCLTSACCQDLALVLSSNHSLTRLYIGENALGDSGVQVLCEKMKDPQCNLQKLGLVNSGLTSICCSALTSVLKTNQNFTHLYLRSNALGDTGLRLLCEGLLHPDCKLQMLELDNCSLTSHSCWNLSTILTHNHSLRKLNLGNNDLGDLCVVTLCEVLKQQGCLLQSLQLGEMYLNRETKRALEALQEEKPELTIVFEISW
smiles,measurement,setting,value
CC(=O)O[C@H]1C[C@@]2(C)[C@@H](C[C@@H](O)[C@H]3[C@@]4(C)CC[C@@H](O)[C@@H](C)[C@@H]4CC[C@@]32C)/C1=C(\CCC=C(C)C)C(=O)OCc1cn(-c2ccccc2)nn1,inhibition,RAW264.7 [1],Active
same,inhibition,RAW264.7 [2],Active
same,inhibition,RAW264.7 [3],Active
same,inhibition,RAW264.7 [4],Active
same,inhibition,[5],Active
same,inhibition,[6],Dose-Dependent Effect
same,inhibition,[7],Dose-Dependent Effect
same,Activity,RAW264.7 [8],Dose-Dependent Effect
same,Activity,Mus musculus [9],Active
same,Activity,Mus musculus [10],Active
same,Activity,Mus musculus [11],Active
same,Activity,Mus musculus [12],Active
same,Activity,Mus musculus [13],Active
same,Activity,Mus musculus [14],Active
same,Activity,Mus musculus [15],Active
same,Activity,Mus musculus [16],Active
same,Activity,Mus musculus [17],Dose-Dependent Effect
same,inhibition,Mus musculus [18],Dose-Dependent Effect
same,inhibition,Mus musculus [19],Dose-Dependent Effect
same,inhibition,Mus musculus [20],Dose-Dependent Effect
same,inhibition,Mus musculus [21],Dose-Dependent Effect
same,inhibition,Mus musculus [22],Dose-Dependent Effect
same,inhibition,Mus musculus [23],Dose-Dependent Effect
same,inhibition,Mus musculus [24],Dose-Dependent Effect
same,IC50,RAW264.7 [25],1.85 µM
same,IC50,RAW264.7 [26],3.88 µM
